Reference: the supplement of paper PMC5579334
± gives the standard deviation of the averaged measurements.

Columns and labels:
[1] = system: HSC1 (primary human Schwann cells); test: drug sensitivity score (DSS, CellTox-Green cytotoxicity, 72 h) (DSS (dimensionless)); higher = more cytotoxic; extreme values may be limits of the assay
Summary of the method: (§1)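 MPNST cell lines and primary human Schwann cells were grown for 72 h at 37 °C in 384-well plates containing five 10-fold compound dilutions. CellTox-Green, added before seeding at a final 1:1000 dilution, gave fluorescence from DNA released by disrupted cells, and signals were scaled to vehicle and positive-control wells. Curves were fitted with a four-parameter logistic model. Drug sensitivity score and relative IC50 come from these fits, with IC50 censored at the top concentration.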

STS26T [2] = test: as above
Summary of the method: as §1

S1507-2 [3] = test: as above
Summary of the method: as §1

[4] = system: HSC2 (primary human Schwann cells); test: as above
Summary of the method: as §1

HS-PSS [5] = test: as above
Summary of the method: as §1

ST8814 [6] = test: as above
Summary of the method: as §1

[7] = system: HSC1 (primary human Schwann cells); test: % inhibition of CellTiter-Glo viability at highest tested concentration (72 h), relative to DMSO and benzethonium chloride controls; higher = more inhibition
Summary of the method: (§2)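 Viability of MPNST cell lines and primary human Schwann cells was read as CellTiter-Glo ATP luminescence after 72 h at 37 °C, 5% CO2, in 384-well plates seeded with 750–1000 cells per well. Each compound had been preprinted at five concentrations in 10-fold steps. Signals were scaled between vehicle and positive-control wells, duplicates averaged where present, and fitted with four-parameter logistic curves. Drug sensitivity score and relative IC50 (censored at the top concentration) come from those fits, and percent inhibition is taken at the top concentration.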

HS-Sch-2 [8] = test: as above
Summary of the method: as §2

STS26T [9] = test: as above
Summary of the method: as §2

S1507-2 [10] = test: as above
Summary of the method: as §2

YST-1 [11] = test: as above
Summary of the method: as §2

[12] = system: HSC2 (primary human Schwann cells); test: as above
Summary of the method: as §2

HS-PSS [13] = test: as above
Summary of the method: as §2

S462 [14] = test: as above
Summary of the method: as §2

ST8814 [15] = test: as above
Summary of the method: as §2

[16] = system: HSC1 (primary human Schwann cells); test: drug sensitivity score (DSS, CellTiter-Glo viability, 72 h) (DSS (dimensionless)); higher = more sensitive; extreme values may be limits of the assay
Summary of the method: as §2

HS-Sch-2 [17] = test: as above
Summary of the method: as §2

STS26T [18] = test: as above
Summary of the method: as §2

S1507-2 [19] = test: as above
Summary of the method: as §2

YST-1 [20] = test: as above
Summary of the method: as §2

[21] = system: HSC2 (primary human Schwann cells); test: as above
Summary of the method: as §2

HS-PSS [22] = test: as above
Summary of the method: as §2

S462 [23] = test: as above
Summary of the method: as §2

ST8814 [24] = test: as above
Summary of the method: as §2

Compound | drug sensitivity score [1] | drug sensitivity score (STS26T [2]) | drug sensitivity score (S1507-2 [3]) | drug sensitivity score [4] | drug sensitivity score (HS-PSS [5]) | drug sensitivity score (ST8814 [6]) | % inhibition [7] [%] | % inhibition (HS-Sch-2 [8]) [%] | % inhibition (STS26T [9]) [%] | % inhibition (S1507-2 [10]) [%] | % inhibition (YST-1 [11]) [%] | % inhibition [12] [%] | % inhibition (HS-PSS [13]) [%] | % inhibition (S462 [14]) [%] | % inhibition (ST8814 [15]) [%] | drug sensitivity score [16] | drug sensitivity score (HS-Sch-2 [17]) | drug sensitivity score (STS26T [18]) | drug sensitivity score (S1507-2 [19]) | drug sensitivity score (YST-1 [20]) | drug sensitivity score [21] | drug sensitivity score (HS-PSS [22]) | drug sensitivity score (S462 [23]) | drug sensitivity score (ST8814 [24])
O=C(/C=C/c1cccnc1)NCCCCC1CCN(C(=O)c2ccccc2)CC1 [Daporinad] (max concentration tested 1000 nM) | 0 | 9.24 | 0 | 0 | 0 | 0 | 70.9 | 101 | 95.5 | 87.9 ± 6.3 | 101 | 83.4 | 90.9 | 100.3 ± 0.6 | 93.2 | 18.8 | 29.8 | 16.4 | 15.02 ± 0.15 | 31.1 | 21.9 | 25 | 28.6 ± 0.7 | 24.1
CN(Cc1cnc2nc(N)nc(N)c2n1)c1ccc(C(=O)N[C@@H](CCC(=O)O)C(=O)O)cc1 [Methotrexate] (max concentration tested 5000 nM) | 0 | 4.94 | 0 | 0 | 0.89 | 0.851 | 3.1 | 58.8 | 62.5 | -2.04 ± 33 | 24.6 | 13.5 | -5.89 | 70.2 ± 8.4 | 38.2 | 0 | 13.7 | 25.9 | 1.24 ± 1.8 | 6.23 | 0.0797 | 0 | 19.9 ± 4.6 | 6.3
CC/C(=C(\c1ccccc1)c1ccc(OCCN(C)C)cc1)c1ccccc1 [Tamoxifen] (max concentration tested 10000 nM) | 0 | 0.396 | 3.75 ± 4.3 | 0 | 0 | 6.84 | 14.8 | 61.6 | 22 | 35.2 ± 12 | 29.6 | 52.1 | 55.4 | 24.9 ± 13 | 65.2 | 0.133 | 4.43 | 0.653 | 1.29 ± 0.79 | 1.24 | 2.59 | 2.37 | 0.757 ± 0.86 | 3.39
CCC1=C[C@@H]2CN(C1)Cc1c([nH]c3ccccc13)[C@@](C(=O)OC)(c1cc3c(cc1OC)N(C)[C@H]1[C@@](O)(C(=O)OC)[C@H](OC(C)=O)[C@]4(CC)C=CCN5CC[C@]31[C@@H]54)C2 [Vinorelbine] (max concentration tested 10000 nM) | 12.5 | 34.4 | 19.2 ± 3.6 | 13.5 | 2.69 | 19.7 | 78.9 | 98.5 | 94.5 | 80.4 ± 4.8 | 94.3 | 88.8 | 80.5 | 99.19 ± 0.43 | 94.7 | 16.7 | 40.6 | 31.9 | 19.1 ± 0.81 | 40.2 | 20.8 | 24.6 | 30.2 ± 0.41 | 20.6
C[C@@H](Oc1cc(-c2cnn(C3CCNCC3)c2)cnc1N)c1c(Cl)ccc(F)c1Cl [Crizotinib] (max concentration tested 1000 nM) | 0 | 0 | 1.38 ± 2 | 0 | 0 | 0 | 21.3 | 19.5 | 1.87 | 13.3 ± 2.3 | 27.5 | 20.8 | 48.6 | 13.3 ± 4.8 | 7.26 | 2.09 | 0.41 | 0 | 0.701 ± 0.72 | 0.85 | 1.21 | 2.17 | 0.409 ± 0.58 | 0
C[C@@H]1CCN(C(=O)CC#N)C[C@@H]1N(C)c1ncnc2[nH]ccc12 [Tofacitinib] (max concentration tested 5000 nM) | 0 | 0 | 0.083 ± 0.12 | 0 | 0 | 0 | 11.7 | -3.98 | 10.4 | 0.251 ± 0.54 | -2.9 | 25.1 | -4.37 | 17.1 ± 3.5 | 6.57 | 3.18 | 0.89 | 0.0007 | 0.398 ± 0.56 | 0.89 | 1.53 | 0 | 1.27 ± 0.56 | 0
CCc1c(C(=O)C(N)=O)c2c(OCC(=O)O)cccc2n1Cc1ccccc1 [Varespladib] (max concentration tested 10000 nM) | 0 | 0 | 0.519 ± 0.73 | 0 | 0 | 0 | 13.8 | 0.4 | 7.98 | 6.19 ± 5.8 | 3.3 | 9.85 | 4.52 | 7.05 ± 10 | 5.74 | 0.748 | 0 | 0 | 0.0077 ± 0.011 | 0 | 0 | 0 | 0.641 ± 0.91 | 0
CNC(=O)c1ccc(N2C(=S)N(c3ccc(C#N)c(C(F)(F)F)c3)C(=O)C23CCC3)cc1F [RD162] (max concentration tested 10000 nM) | 0 | 0 | 2.37 ± 3.4 | 0 | 0 | 0 | 11.2 | 9.66 | 4.23 | 10.7 ± 20 | 7.83 | 8.13 | -0.07 | -0.791 ± 7.8 | 10 | 0.0127 | 0 | 0 | 1.24 ± 1.8 | 0 | 0 | 0 | 0 | 0
O=c1[nH]cc(F)c(=O)[nH]1 [Fluorouracil] (max concentration tested 10000 nM) | 0 | 0 | 0 | 0 | 0 | 0 | 43.5 | 35 | 53.4 | 11 ± 7.6 | 25.5 | 55.5 | 29.4 | 27.2 ± 7 | 4.62 | 1.94 | 1.83 | 6.56 | 0.493 ± 0.7 | 0.94 | 2.86 | 1.09 | 0.808 ± 0.45 | 0
CCC1(c2ccc(N)cc2)CCC(=O)NC1=O (configuration not stated) [Aminoglutethimide] (max concentration tested 10000 nM) | 0 | 0 | 0 | 0 | 0 | 0 | 8.78 | 3.62 | 2.67 | 3.35 ± 1.2 | -9.69 | -6.11 | 1.47 | -7.67 ± 7.8 | -3.31 | 0 | 0 | 0 | 0 | 0 | 0 | 0 | 0 | 0
C[C@]12C=CC(=O)C=C1CC[C@@H]1[C@@H]2[C@@H](O)C[C@@]2(C)[C@H]1CC[C@]2(O)C(=O)CO [Prednisolone] (max concentration tested 10000 nM) | 0 | 0 | 0 | 0 | 0 | 0 | 6.78 | 6 | 3.25 | 11.2 ± 15 | 12 | -7.75 | -16.2 | -0.231 ± 7 | 15.6 | 0 | 0 | 0 | 0.89 ± 1.3 | 0.25 | 0 | 0 | 0 | 3.88
CC1(C)NC(=O)N(c2ccc([N+](=O)[O-])c(C(F)(F)F)c2)C1=O [Nilutamide] (max concentration tested 10000 nM) | 0 | 0 | 0 | 0 | 0 | 0 | 9.41 | 18.2 | 7.4 | 7.48 ± 3.5 | -2.31 | 9.17 | 8.31 | 6.29 ± 2.4 | -1.67 | 0.162 | 0.51 | 0 | 0 | 0 | 0 | 0 | 0 | 0
O=C1CCC(N2C(=O)c3ccccc3C2=O)C(=O)N1 (configuration not stated) [Thalidomide] (max concentration tested 10000 nM) | 0 | 0 | 0 | 0 | 0 | 0 | 1.74 | 12.4 | 2.86 | 13 ± 12 | 2.49 | 8.31 | 8.04 | -8.98 ± 4.2 | 10.4 | 0 | 0.45 | 0 | 0.783 ± 1.1 | 0 | 0 | 0 | 0 | 0.0095
